In this assay the target is MC4-R (Homo sapiens, UniProt P32245). The experiment in a line: cAMP Scintillation Proximity Assay (SPA) in cells expressing MC4-R. The conditions noted are these: intercellular cAMP concentration by SPA kit, read-out: in vitro potency (as measured by EC50 value). Type of assay: cell-based. Here is the method:
EC50 values of test compounds were determined by treating cells expressing MC4-R with test compound and lysing the cells and measuring intercellular cAMP concentration with an Amersham-Pharmacia RPA-559 cAMP Scintillation Proximity Assay (SPA) kit. The following compounds were synthesized and tested according to this assay. The following compounds are merely illustrative and should not be construed as limiting of the instant invention.
A general note: In a scintillation proximity assay essentially only radioactivity close to the scintillant gives light.

Sequence of MC4-R (P32245 whole entry, species assumed): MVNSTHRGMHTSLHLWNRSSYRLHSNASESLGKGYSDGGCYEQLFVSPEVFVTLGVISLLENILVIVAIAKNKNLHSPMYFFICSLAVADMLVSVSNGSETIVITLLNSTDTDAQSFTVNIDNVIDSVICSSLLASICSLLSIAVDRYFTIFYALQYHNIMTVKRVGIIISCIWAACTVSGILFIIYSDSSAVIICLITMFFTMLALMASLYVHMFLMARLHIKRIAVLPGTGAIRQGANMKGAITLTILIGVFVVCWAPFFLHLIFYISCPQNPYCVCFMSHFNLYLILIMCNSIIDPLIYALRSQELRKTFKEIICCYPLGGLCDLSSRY

On to `C[C@@H]1[C@@H](N=C(Nc2ccc3nc(CCc4ccc(F)cc4Cl)[nH]c3c2)N2CCN[C@@H](C)C2)C[C@H]2C[C@@H]1C2(C)C` [Example 25, (3S)-N-{2-[2-(2-chloro-4-fluorophenyl)ethyl]-1H-benzimidazol-6-yl}-3-methyl-N′-[(1S,2S,3S,5R)-2,6,6-trimethylbicyclo[3.1.1]hept-3-yl]piperazine-1-carboximidamide], for which the EC50 is below 3 µM.

Regarding `C[C@@H]1[C@@H](N=C(Nc2ccc3c(c2)CCN(CCc2ccc(Cl)cc2Cl)C3=O)N2CCN[C@@H](C)C2)C[C@H]2C[C@@H]1C2(C)C` [Example 22, (3S)-N-{2-[2-(2,4-dichlorophenyl)ethyl]-1-oxo-1,2,3,4-tetrahydroisoquinolin-6-yl}-3-methyl-N′-[(1S,2S,3S,5R)-2,6,6-trimethylbicyclo[3.1.1]hept-3-yl]piperazine-1-carboximidamide], the EC50 was below 3 µM.

As to `Cc1ccc(CCN2Cc3cc(NC(=N[C@H]4C[C@H]5C[C@@H]([C@@H]4C)C5(C)C)N4CCN[C@@H](C)C4)ccc3C2=O)c(C)c1` [Example 20, (3S)-N-{2-[2-(2,4-dimethylphenyl)ethyl]-1-oxo-2,3-dihydro-1H-isoindol-5-yl}-3-methyl-N′-[(1S,2S,3S,5R)-2,6,6-trimethylbicyclo[3.1.1]hept-3-yl]piperazine-1-carboximidamide], the EC50 is below 3 µM.

`C[C@@H]1[C@@H](N=C(Nc2ccc3c(c2)C(=O)N(CCc2ccc(F)cc2F)C3=O)N2CCN[C@@H](C)C2)C[C@H]2C[C@@H]1C2(C)C` [Example 11, (3S)-N-{2-[2-(2,4-difluorophenyl)ethyl]-1,3-dioxo-2,3-dihydro-1H-isoindol-5yl}-3-methyl-N′-[(1S,2S,3S,5R)-2,6,6-trimethylbicyclo[3.1.1]hept-3-yl]piperazine-1-carboximidamide]: the EC50 is below 3 µM.

On to `C[C@@H]1[C@@H](N=C(Nc2ccc3c(c2)C(=O)N([C@H](CO)[C@H](O)c2ccccc2)C3=O)N2CCN[C@@H](C)C2)C[C@H]2C[C@@H]1C2(C)C` [Example 15, (3S)-N-{2-[(1R,2R)-2-hydroxy-1-(hydroxymethyl)-2-phenylethyl]-1,3-dioxo-2,3-dihydro-1H-isoindol-5-yl}-3-methyl-N′-[(1S,2S,3S,5R)-2,6,6-trimethylbicyclo[3.1.1]hept-3-yl]piperazine-1-carboximidamide], for which the EC50 was below 3 µM.

Consider `C[C@@H]1[C@@H](N=C(Nc2ccc3c(c2)CN(CCc2ccc(F)cc2F)C3=O)N2CCN[C@@H](C)C2)C[C@H]2C[C@@H]1C2(C)C` [Example 18, (3S)-N-{2-[2-(2,4-difluorophenyl)ethyl]-1-oxo-2,3-dihydro-1H-isoindol-5-yl}-3-methyl-N′-[(1S,2S,3S,5R)-2,6,6-trimethylbicyclo[3.1.1]hept-3-yl]piperazine-1-carboximidamide], for which the EC50 is below 3 µM.

For the molecule `C[C@@H]1[C@@H](N=C(Nc2ccc3c(c2)C(=O)N([C@H](CO)Cc2ccccc2)C3=O)N2CCN[C@@H](C)C2)C[C@H]2C[C@@H]1C2(C)C` [Example 5, (3S)-N-{2-[(1S)-1-benzyl-2-hydroxyethyl]-1,3-dioxo-2,3-dihydro-1H-isoindol-5-yl}-3-methyl-N′-[(1S,2S,3S,5R)-2,6,6-trimethylbicyclo[3.1.1]hept-3-yl]piperazine-1-carboximidamide], the EC50 was below 3 µM.

For `Cc1ccc(CCN2C(=O)c3ccc(NC(=N[C@H]4C[C@H]5C[C@@H]([C@@H]4C)C5(C)C)N4CCN[C@@H](C)C4)cc3C2=O)c(C)c1` [Example 13, (3S)-N-{2-[2-(2,4-dimethylphenyl)ethyl]-1,3-dioxo-2,3-dihydro-1H-isoindol-5-yl}-3-methyl-N′-[(1S,2S,3S,5R)-2,6,6-trimethylbicyclo[3.1.1]hept-3-yl]piperazine-1-carboximidamide], the EC50 is below 3 µM.

On to `C[C@@H]1[C@@H](N=C(Nc2ccc3c(c2)C(=O)N(Cc2ccc(Cl)cc2Cl)C3=O)N2CCN[C@@H](C)C2)C[C@H]2C[C@@H]1C2(C)C` [Example 4, (3S)-N-[2-(2,4-dichlorobenzyl)-1,3-dioxo-2,3-dihydro-1H-isoindol-5-yl]-3-methyl-N′-[(1S,2S,3S,5R)-2,6,6-trimethylbicyclo[3.1.1]hept-3-yl]piperazine-1-carboximidamide], for which the EC50 is below 3 µM.

On to `C[C@@H]1[C@@H](N=C(Nc2ccc3c(c2)C(=O)N([C@@H](CO)[C@@H](O)c2ccccc2)C3=O)N2CCN[C@@H](C)C2)C[C@H]2C[C@@H]1C2(C)C` [Example 14, (3S)-N-{2-[(1S ,2S)-2-hydroxy-1-(hydroxymethyl)-2-phenylethyl]-1,3-dioxo-2,3-dihydro-1H-isoindol-5yl}-3-methyl-N′-[(1S,2S,3S,5R)-2,6,6-trimethylbicyclo[3.1.1]hept-3-yl]piperazine-1-carboximidamide], for which the EC50 is below 3 µM.

With `C[C@@H]1[C@@H](N=C(Nc2ccc3c(c2)C(=O)N(CCc2ccc(F)cc2F)C3)N2CCN[C@@H](C)C2)C[C@H]2C[C@@H]1C2(C)C` [Example 19, (3S)-N-{2-[2-(2,4-difluorophenyl)ethyl]-3-oxo-2,3-dihydro-1H-isoindol-5-yl}-3-methyl-N′-[(1S,2S,3S,5R)-2,6,6-trimethylbicyclo[3.1.1]hept-3-yl]piperazine-1-carboximidamide], the EC50 was below 3 µM.

For the molecule `COc1ccc(CCN2C(=O)c3ccc(NC(=N[C@H]4C[C@H]5C[C@@H]([C@@H]4C)C5(C)C)N4CCN[C@@H](C)C4)cc3C2=O)c(OC)c1` [Example 12, (3S)-N-{2-[2-(2,4-dimethoxyphenyl)ethyl]-1,3-dioxo-2,3-dihydro-1H-isoindol-5-yl}-3-methyl-N′-[(1S,2S,3S,5R)-2,6,6-trimethylbicyclo[3.1.1]hept-3-yl]piperazine-1-carboximidamide], the EC50 is below 3 µM.

Turning to `C[C@@H]1[C@@H](N=C(Nc2ccc3c(c2)C(=O)N([C@@H](CO)[C@H](O)c2ccccc2)C3=O)N2CCN[C@@H](C)C2)C[C@H]2C[C@@H]1C2(C)C` [Example 16, (3S )-N-{2-[(1S,2R)-2-hydroxy-1-(hydroxymethyl)-2-phenylethyl]-1,3-dioxo-2,3-dixo-2,3-dihydro-1H-isoindol-5-yl}-3-methyl-N′-[(1S,2S,3S,5R)-2,6,6-trimethylbicyclo[3.1.1]hept-3-yl]piperazine-1-carboximidamide], the EC50 was below 3 µM.

In the case of `C[C@@H]1[C@@H](N=C(Nc2ccc3c(c2)C(=O)N([C@@H](CO)Cc2ccccc2)C3=O)N2CCN[C@@H](C)C2)C[C@H]2C[C@@H]1C2(C)C` [Example 6, (3S)-N-{2-[(1R)-1-benzyl-2-hydroxyethyl]-1,3-dioxo-2,3-dihydro-1H-isoindol-5-yl}-3-methyl-N′-[(1S,2S,3S,5R)-2,6,6-trimethylbicyclo[3.1.1]hept-3-yl]piperazine-1-carboximidamide], the EC50 is below 3 µM.

On to `COc1ccc(CCN2C(=O)c3ccc(NC(=N[C@H]4C[C@H]5C[C@@H]([C@@H]4C)C5(C)C)N4CCN[C@@H](C)C4)cc3C2=O)c(F)c1` [Example 10, (3S)-N-{2-[2-(2-fluoro-4-methoxyphenyl)ethyl]-1,3-dioxo-2,3-dihydro-1H-isoindol-5yl}-3-methyl-N′-[(1S,2S,3S,5R)-2,6,6-trimethylbicyclo[3.1.1]hept-3-yl]piperazine-1-carboximidamide], for which the EC50 was below 3 µM.

Regarding `Cc1ccc(CCN2Cc3ccc(NC(=N[C@H]4C[C@H]5C[C@@H]([C@@H]4C)C5(C)C)N4CCN[C@@H](C)C4)cc3C2=O)c(C)c1` [Example 21, (3S)-N-{2-[2-(2,4-dimethylphenyl)ethyl]-3-oxo-2,3-dihydro-1H-isoindol-5-yl}-3-methyl-N′-[(1S,2S,3S,5R)-2,6,6-trimethylbicyclo[3.1.1]hept-3-yl]piperazine-1-carboximidamide], the EC50 was below 3 µM.

For the molecule `COc1ccc(CCN2Cc3cc(NC(=N[C@H]4C[C@H]5C[C@@H]([C@@H]4C)C5(C)C)N4CCN[C@@H](C)C4)ccc3C2=O)c(F)c1` [Example 17, (3S)-N-{2-[2-(2-fluoro-4-methoxyphenyl)ethyl]-1-oxo-2,3-dihydro-1H-isoindol-5-yl}-3-methyl-N′-[(1S,2S,3S,5R)-2,6,6-trimethylbicyclo[3.1.1]hept-3-yl]piperazine-1-carboximidamide], the EC50 is below 3 µM.

As for `C[C@@H]1[C@@H](N=C(Nc2ccc3c(c2)C(=O)N(CCc2ccc(Cl)cc2Cl)C3)N2CCN[C@@H](C)C2)C[C@H]2C[C@@H]1C2(C)C` [Example 3, (3S )-N-{2-[2-(2,4-dichlorophenyl)ethyl]-3-oxo-2,3-dihydro-1H-isoindol-5-yl}-3-methyl-N′-[(1S,2S,3S,5R)-2,6,6-trimethylbicyclo[3.1.1]hept-3-yl]piperazine-1-carboximidamide], the EC50 is below 3 µM.

For `C[C@@H]1[C@@H](/N=C(\Nc2ccc3[nH]c(CCc4ccc(Cl)cc4Cl)nc3c2)N2CCN[C@@H](C)C2)C[C@H]2C[C@@H]1C2(C)C` [Example 23, (3S)-N-{2-[2-(2,4-dichlorophenyl)ethyl]-1H-benzimidazol-5-yl}-3-methyl-N′-[(1S,2S,3S,5R)-2,6,6-trimethylbicyclo[3.1.1]hept-3-yl]piperazine-1-carboximidamide], the EC50 is below 3 µM.

Turning to `C[C@@H]1[C@@H](N=C(Nc2ccc3c(c2)CN([C@H](CO)Cc2ccc(Cl)cc2Cl)C3=O)N2CCN[C@@H](C)C2)C[C@H]2C[C@@H]1C2(C)C` [Example 9, (3S)-N-{2-[(1S)-1-(2,4-dichlorobenzyl)-2-hydroxyethyl]-1-oxo-2,3-dihydro-1H-isoindol-5yl}-3-methyl-N′-[(1S,2S,3S,5R)-2,6,6-trimethylbicyclo[3.1.1]hept-3-yl]piperazine-1-carboximidamide], the EC50 was below 3 µM.

Regarding `Cc1ccc(CCc2nc3ccc(NC(=N[C@H]4C[C@H]5C[C@@H]([C@@H]4C)C5(C)C)N4CCN[C@@H](C)C4)cc3[nH]2)c(C)c1` [Example 24, (3S)-N-{2-[2-(2,4-dimethylphenyl)ethyl]-1H-benzimidazol-6-yl}-3-methyl-N′-[(1S,2S,3S,5R)-2,6,6-trimethylbicyclo[3.1.1]hept-3-yl]piperazine-1-carboximidamide], the EC50 is below 3 µM.

Usually EC50 stands for the concentration needed to bring the measured effect to its halfway point.

The values above are taken from patent US6960582B2, “Guanidino compounds” (Chiron Corporation, priority 2001, dated 2005).
